The conditions of data set [1]: cited from earlier work.
For data set [2] the following is noted: cited from earlier work. The source holds these as a separate data set.
The conditions of data set [3]: cited from earlier work. The source holds these as a separate data set.
In data set [4] the test system is elicited peritoneal macrophages isolated from apoE-/- mice. The data set can be described thus: Cholesterol efflux assay in cholesterol-loaded elicited peritoneal macrophages. The format is cell-based, mouse. To be noted: 1.5 μM. How it is done: Cholesterol efflux assays. Human apo A-I was prepared as described before (25). Low density lipoprotein (LDL, 1.019<density<1.063 g/mL) and subfraction 3 of high density lipoprotein (HDL3, 1.125<density<1.21 g/mL) were isolated by sequential ultracentrifugation of human plasma. Lipoproteins were extensively dialyzed against phosphate buffered saline (PBS) and protein content measured with a CBQCA Protein Quantitation Kit (Molecular Probes, Eugene, Oreg.). The quality and purity of the lipoprotein preparations was confirmed by SDS-PAGE by the identification of appropriate apolipoproteins. Acetylated LDL (AcLDL) was prepared according to (26). Dulbeco's Modified Eagle medium (DMEM), L-glutamine, Penicillin-Streptomycin solutions, fetal bovine serum (FBS), and PBS were purchased from the Invitrogen Corporation (Carlsbad, Calif.). […]
For measurement of cholesterol efflux, aliquots of the media were collected at 6 and 18 h, and tritium cpm measured by scintillation counting. […] Free and esterified cholesterol content was measured prior to and after efflux under the various treatment conditions. After extraction of lipids, cells were lysed with 0.2 N NaOH and protein content determined by Lowry assay. Total cholesterol and free cholesterol were determined by using kits from Roche Applied Science. Cholesteryl ester content was determined by subtracting free cholesterol from total cholesterol.

The conditions of data set [5]: mouse; cited from earlier work.
Setting [6] is: concentration 1M (values in parentheses).

Like-named read-outs stand apart in the source and are kept apart here.

As for `O=C([O-])CN1CCN(CC(=O)[O-])CCN([C@H](CO)[C@H](O)CO)CCN(CC(=O)[O-])CC1.[Gd+3]` (racemic) [Gadobutrol, Gd-DO3A-butrol], the figures for the Osmolality in data set [1] (concentration 0.5M) and in data set [1] (setting [6]) were 0.57 osmol/kg and “(1.39) osmol/kg”, respectively. Besides, the Viscosity in data set [2] (concentration 0.5M) is listed as 1.4 cP; in data set [2] (setting [6]), “(3.7) cP”. In data set [3], the r1, 0.5 T 37° C. is 3.6 mM⁻¹ s⁻¹.

For the compound `O=C(Nc1ccccc1)c1cc([N+](=O)[O-])ccc1Cl` [GW9662], the “cholesterol efflux to HDL” value in data set [4] ([3H]cholesterol-AcLDL loaded macrophages with F-1394, acceptor HDL3 50 μg/mL) is given as “did not affect”. The “cholesterol efflux to apoA-I” value in data set [4] ([3H]cholesterol-AcLDL loaded macrophages with F-1394, acceptor apoA-I 50 μg/mL) was “did not affect”.

On to `CNC[C@H](O)[C@@H](O)[C@H](O)[C@H](O)CO.CNC[C@H](O)[C@@H](O)[C@H](O)[C@H](O)CO.O=C([O-])CN(CCN(CC(=O)[O-])CC(=O)O)CCN(CC(=O)O)C(COCc1ccccc1)C(=O)[O-].[Gd+3]` (centres unmarked) [Gadobenate, Gd-BOPTA], for which the Osmolality in data set [1] (concentration 0.5M) is given as 1.97 osmol/kg. For the same compound, in data set [2] (concentration 0.5M), the Viscosity is reported as 5.3 cP. In addition, the r1, 0.5 T 37° C. in data set [3] is 4.4 mM⁻¹ s⁻¹.

`CNC(=O)CN(CCN(CCN(CC(=O)[O-])CC(=O)NC)CC(=O)[O-])CC(=O)[O-].[Gd+3]` [Gadodiamide, Gd-DTPA-BMA]: the Osmolality in data set [1] (concentration 0.5M) is recorded as 0.79 osmol/kg; in data set [1] (setting [6]) it was “(1.90) osmol/kg”. Also, the Viscosity in data set [2] (concentration 0.5M) is listed as 1.4 cP; in data set [2] (setting [6]) it was “(3.9) cP”. For the same compound, the r1, 0.5 T 37° C. in data set [3] is 3.9 mM⁻¹ s⁻¹.

Regarding `CNC[C@H](O)[C@@H](O)[C@H](O)[C@H](O)CO.CNC[C@H](O)[C@@H](O)[C@H](O)[C@H](O)CO.O=C([O-])CN(CCN(CC(=O)[O-])CC(=O)O)CCN(CC(=O)[O-])CC(=O)O.[Gd+3]` [Gadopenetate, Gd-DTPA], the Osmolality in data set [1] (concentration 0.5M) is on record as 1.96 osmol/kg. For the same compound, the Viscosity in data set [2] (concentration 0.5M) is 2.9 cP. Moreover, in data set [3], the r1, 0.5 T 37° C. is 3.8 mM⁻¹ s⁻¹.

For the compound `O=C([O-])CN1CCN(CC(=O)[O-])CCN(CC(=O)[O-])CCN(CC(=O)[O-])CC1.[Gd+3]` [Gadoterate, Gd-DOTA], the Osmolality was 1.35 osmol/kg in data set [1] (concentration 0.5M) and “(4.02) osmol/kg” in data set [1] (setting [6]). The Viscosity is 2.0 cP in data set [2] (concentration 0.5M) and “(11.3) cP” in data set [2] (setting [6]). For the same compound, the r1, 0.5 T 37° C. in data set [3] was 3.6 mM⁻¹ s⁻¹.

`Cc1[nH+]cc(COP(=O)([O-])[O-])c(CN(CCN(CC(=O)[O-])Cc2c(COP(=O)([O-])O)c[nH+]c(C)c2O)CC(=O)[O-])c1O.[Mn].[Na+].[Na+].[Na+]` [Mangafodipir, Mn-DPDP]: in data set [1] (concentration 0.01M), the Osmolality is on record as 0.29 osmol/kg. The Viscosity in data set [2] (concentration 0.01M) is reported as 0.7 cP. In data set [3], the r1, 0.5 T 37° C. was 1.9 mM⁻¹ s⁻¹.

For the compound Gd-DTPA-BMEA [Gadoversetamide], the Osmolality in data set [1] (concentration 0.5M) is reported as 1.11 osmol/kg. Besides, the Viscosity in data set [2] (concentration 0.5M) is given as 2.0 cP. The r1, 0.5 T 37° C. in data set [3] is 4.7 mM⁻¹ s⁻¹.

Regarding Gd-HPDO3A [Gadoteridol], the values for the Osmolality in data set [1] (concentration 0.5M) and in data set [1] (setting [6]) were 0.63 osmol/kg and “(1.91) osmol/kg”, respectively. In addition, the results for the Viscosity in data set [2] (concentration 0.5M) and in data set [2] (setting [6]) were 1.3 cP and “(3.9) cP”, respectively. In data set [3], the r1, 0.5 T 37° C. is 3.7 mM⁻¹ s⁻¹.

For the compound HDL-apoAI: apolipoprotein AI of HDL, the “t1/2 in the circulation” value in data set [5] was “roughly 10 h”.

The record behind these values is US7947307B2, “Methods and compositions for imaging” (Mount Sinai School of Medicine of New York University, priority 2004, dated 2011).
